In patent US20160074338A1, “FOOD COMPOSITION FOR PREVENTING OBESITY, PHARMACEUTICAL COMPOSITION FOR TREATING OBESITY, AND ANIMAL MEDICINE FOR TREATING OBESITY, CONTAINING GINGERNONE A” (SNU R&DB Foundation, priority 2011, published 2016):

How the values were obtained:
Format in all cases: cell-based
[1] = test system: C/EBPα; test: Western blotting of C/EBPα protein expression in differentiating 3T3-L1 cells; details: MDI-differentiated 3T3-L1 cells; for C/EBPα expression level: 40 μM, FIG. 5 comparison
Procedure: (§1) In Experimental Example 4, it was confirmed by Western blotting that gingerenone A affects important transcriptional factors, C/EBPα and PPARγ, and FAS protein expressed by a transcriptional factor thereof, expressed upon fat cell differentiation (B. L. Upham et al., Carcinogenesis. 18:37-42, 1997).
(§2) Post-confluent 3T3-L1 cells were cultured in DMEM supplemented with MDI, 10% FBS and 10 ml/L of antibiotic-antimycotic agent. In this media, we additionally treated with or without gingerenone A (10, 20 and 40 μM) for 2 days. For the next 2 to 4 days, the cells were further cultured. Here, the culture media was prepared by adding gingerenone A at concentrations of 10, 20 and 40 μM to DMEM media comprising insulin, 10% FBS and 1% antibiotic-antimycotic agent. For the next 4 to 6 days, the cells were further cultured in media comprising 10% FBS, 1% antibiotic-antimycotic agent and gingerenone A. Here, gingerenone A was added at concentrations of 10, 20 and 40 μM to the DMEM media. To extract protein from the cultured cells, after washing two times with cold PBS (phosphate buffered saline), the cells were lysed with a protein extraction solution. The protein extraction solution was RIPA buffer (50 mM, Tris pH 8.0, 150 mM NaCl, 1% NP-40, 5 mM EDTA and 1 mM PMSF) comprising 0.5% protease inhibitor (SIGMA-ALDRICH) and 0.5% phosphatase inhibitor (250 mM sodium fluoride, 5 mM sodium orthovanadate, 50 mM sodium pyrophosphate and 50 mM glycerophosphate). The cell lysates were centrifuged at 4° C. for 20 minutes at a rate of 12000 rpm. Supernatant formed by centrifugation was transferred to new 1.5 mL Eppendorf tubes. The protein content of the supernatants was determined using a DC assay kit (Bio-Rad Corp., Richmond, Calif., USA). The DC assay kit uses BSA (bovine serum albumin) as a standard solution. After mixing 20 to 50 μg of the protein with a sample buffer comprising bromophenol blue and denaturing the protein at 100° C. for 5 minutes, the denatured proteins were separated on a 12% SDS-polyacrylamide gel. […]

[2] = test system: PPARγ; test: Western blotting of PPARγ protein expression in differentiating 3T3-L1 cells; details: MDI-differentiated 3T3-L1 cells
Procedure: as §1
Post-confluent 3T3-L1 cells were cultured in DMEM supplemented with MDI, 10% FBS and 10 ml/L of antibiotic-antimycotic agent. In this media, we additionally treated with or without gingerenone A (10, 20 and 40 μM) for 2 days. For the next 2 to 4 days, the cells were further cultured. Here, the culture media was prepared by adding gingerenone A at concentrations of 10, 20 and 40 μM to DMEM media comprising insulin, 10% FBS and 1% antibiotic-antimycotic agent. For the next 4 to 6 days, the cells were further cultured in media comprising 10% FBS, 1% antibiotic-antimycotic agent and gingerenone A. Here, gingerenone A was added at concentrations of 10, 20 and 40 μM to the DMEM media. To extract protein from the cultured cells, after washing two times with cold PBS (phosphate buffered saline), the cells were lysed with a protein extraction solution. […] The protein content of the supernatants was determined using a DC assay kit (Bio-Rad Corp., Richmond, Calif., USA). […]

[3] = test system: 3T3-L1 cells; test: Oil red O staining of fat accumulation in MDI-differentiated 3T3-L1 cells; details: 10, 20 and 40 μM, 6 days, dependent on concentration
Procedure: In Experimental Example 3, to analyze the suppressive effects of gingerenone A on fat accumulation, oil red 0 staining was performed after inducing differentiation of the pre-adipocytes (K. Tobe et al., FEBS Lett, 215(2):345-9, 1987).
The 3T3-L1 cells (ATCC, Gaithersburg, Md.), representing pre-adipocytes, were plated into 24-well plates. The plated 3T3-L1 cell line was cultured in DMEM (Dulbecco-modified Eagle medium, WELGENE) with 10% FBS (fetal bovine serum) and 10 ml/L of antibiotic-antimycotic agent at 37° C. in a 5% CO2 incubator (MCO-15AC, SANYO E&E, Europe) until the cells reached 100% confluence.
When the 3T3-L1 cells reached 100% confluence, the cells were further cultured for 2 days in DMEM medium, in which MDI was added, with 10 ml/L of antibiotic-antimycotic agent and 10% fetal bovine serum (FBS). The media was replaced with DMEM containing 10 ml/L of insulin, 10% FBS and 10 ml/L of antibiotic-antimycotic agent for another 2 days. Thereafter, the media was changed to DMEM medium only comprising 10 ml/L of antibiotic-antimycotic agent and 10% FBS. […]
When 3T3-L1 cells were differentiated in the presence of MDI, gingerenone A was added at concentrations of 10, 20 and 40 μM to the cell culture media every third day from the day of MDI addition. […] The concentration was measured at a wavelength of 515 nm using an absorbance reader.

[4] = test system: FAS (fatty acid synthase); test: Western blotting of FAS protein expression in differentiating 3T3-L1 cells; details: MDI-differentiated 3T3-L1 cells; for FAS expression level: 40 μM, FIG. 5 comparison
Procedure: as §1, §2

[5] = test system: 3T3-L1 cells; test: MTT analysis of viability of 3T3-L1 cells
Procedure: In Experimental Example 2, in order to measure the toxicity of 3T3-L1 cells in the presence of varying concentrations of gingerenone A, MTT3-(4,5-Dimethylthiazol-2-yl)-2,5diphenyltetrazolium bromide) analysis was conducted.
First, after plating 3T3-L1 cells into 96 well plates, the cells were cultured until the 3T3-L1 cells became confluent. Thereafter, the 3T3-L1 cells were treated with gingerenone A at concentrations of 10, 20 and 40 μM. After culturing for 24 and 48 hours, MTT was added to the cultured cells to a concentration of 0.5 mg/ml. The treated cells were cultured for 4 hours at 37° C. in a 5% CO2 incubator. Thereafter, the media was removed and 200 μl of DMSO (dimethylsulfoxide) was added to measure absorbance at a wavelength of 570 nm using an absorbance reader (Versa Max, Molecular Device, California, USA). Cell viability was determined as a percentage with respect to a control treated with only MDI (0.5 mM of isobutyl-methylxanthine, 1 μM of dexamethasone and 10 μg/ml of insulin).

Row | SMILES | C/EBPα expression level [1] | C/EBPα protein expression level ([1]; 10, 20 and 40 μM, FIG. 4) | PPARγ expression level ([2]; 40 μM, FIG. 5 comparison) | PPARγ protein expression level ([2]; 10, 20 and 40 μM, FIG. 4) | cellular fat content (oil red O staining) [3] | FAS expression level [4] | FAS protein expression level ([4]; 10, 20 and 40 μM, FIG. 4) | cytotoxicity (viability of 3T3-L1 cells) ([5]; 40 μM, 24 and 48 hours after treatment) | cytotoxicity (MTT analysis) ([5]; 3T3-L1 pre-adipocytes treated with 10, 20 and 40 μM)
1 | COc1cc(CC/C=C/C(=O)CCc2ccc(O)c(OC)c2)ccc1O [gingerenone A] | considerably reduced | reduced | considerably reduced | reduced | decreased | considerably reduced | reduced | not observed | not observed
2 | CCCCC[C@H](O)CC(=O)CCc1ccc(O)c(OC)c1 [gingerol, reference compound] | slightly reduced | – | – | – | – | slightly reduced | – | – | –
